Results published in ChEMBL document CHEMBL3865816, “Design, synthesis and biological evaluation of novel azaspiro analogs of linezolid as antibacterial and antitubercular agents” (Eur J Med Chem, 2016).
Values after ≈ are worked out from the molar mass of the structure shown.

Experiments:
Assay type in all cases: functional
[1] = tested on: Pseudomonas aeruginosa; assay: Antibacterial activity against Pseudomonas aeruginosa NCIM 2036 measured after 8 hrs by spectrophotometric method; conditions: NCIM 2036, 8 h
[2] = tested on: Staphylococcus aureus; assay: Antibacterial activity against Staphylococcus aureus NCIM 2079 measured after 12 hrs by spectrophotometric method; conditions: NCIM 2079, 12 h
[3] = tested on: Escherichia coli; assay: Antibacterial activity against Escherichia coli NCIM 2688 measured after 8 hrs by spectrophotometric method; conditions: NCIM 2688, 8 h
[4] = tested on: Bacillus subtilis; assay: Antibacterial activity against Bacillus subtilis NCIM 2010 measured after 12 hrs by spectrophotometric method; conditions: NCIM 2010, 12 h
[5] = tested on: Mycobacterium tuberculosis; assay: Antitubercular activity against active stage Mycobacterium tuberculosis H37Ra measured after 8 days by XTT assay; conditions: 192 h
[6] = tested on: Mycobacterium tuberculosis; assay: Antitubercular activity against dormant stage Mycobacterium tuberculosis H37Ra measured after 12 days by XTT assay; conditions: 288 h
[7] = tested on: Escherichia coli; assay: Antibacterial activity against Escherichia coli NCIM 2688 at 30 ug/ml measured after 8 hrs by spectrophotometric method; conditions: NCIM 2688, 8 h
[8] = tested on: Escherichia coli; assay: Antibacterial activity against Escherichia coli NCIM 2688 at 10 ug/ml measured after 8 hrs by spectrophotometric method; conditions: NCIM 2688, 8 h
[9] = tested on: Escherichia coli; assay: Antibacterial activity against Escherichia coli NCIM 2688 at 3 ug/ml measured after 8 hrs by spectrophotometric method; conditions: NCIM 2688, 8 h
[10] = tested on: Pseudomonas aeruginosa; assay: Antibacterial activity against Pseudomonas aeruginosa NCIM 2036 at 30 ug/ml measured after 8 hrs by spectrophotometric method; conditions: NCIM 2036, 8 h
[11] = tested on: Pseudomonas aeruginosa; assay: Antibacterial activity against Pseudomonas aeruginosa NCIM 2036 at 10 ug/ml measured after 8 hrs by spectrophotometric method; conditions: NCIM 2036, 8 h
[12] = tested on: Pseudomonas aeruginosa; assay: Antibacterial activity against Pseudomonas aeruginosa NCIM 2036 at 3 ug/ml measured after 8 hrs by spectrophotometric method; conditions: NCIM 2036, 8 h
[13] = tested on: Staphylococcus aureus; assay: Antibacterial activity against Staphylococcus aureus NCIM 2079 at 30 ug/ml measured after 12 hrs by spectrophotometric method; conditions: NCIM 2079, 12 h
[14] = tested on: Staphylococcus aureus; assay: Antibacterial activity against Staphylococcus aureus NCIM 2079 at 10 ug/ml measured after 12 hrs by spectrophotometric method; conditions: NCIM 2079, 12 h
[15] = tested on: Staphylococcus aureus; assay: Antibacterial activity against Staphylococcus aureus NCIM 2079 at 3 ug/ml measured after 12 hrs by spectrophotometric method; conditions: NCIM 2079, 12 h
[16] = tested on: Bacillus subtilis; assay: Antibacterial activity against Bacillus subtilis NCIM 2010 at 30 ug/ml measured after 12 hrs by spectrophotometric method; conditions: NCIM 2010, 12 h
[17] = tested on: Bacillus subtilis; assay: Antibacterial activity against Bacillus subtilis NCIM 2010 at 10 ug/ml measured after 12 hrs by spectrophotometric method; conditions: NCIM 2010, 12 h
[18] = tested on: Bacillus subtilis; assay: Antibacterial activity against Bacillus subtilis NCIM 2010 at 3 ug/ml measured after 12 hrs by spectrophotometric method; conditions: NCIM 2010, 12 h
[19] = tested on: Mycobacterium tuberculosis; assay: Antitubercular activity against dormant stage Mycobacterium tuberculosis H37Ra at 30 ug/ml measured after 12 days by XTT assay; conditions: 288 h
[20] = tested on: Mycobacterium tuberculosis; assay: Antitubercular activity against dormant stage Mycobacterium tuberculosis H37Ra at 10 ug/ml measured after 12 days by XTT assay; conditions: 288 h
[21] = tested on: Mycobacterium tuberculosis; assay: Antitubercular activity against dormant stage Mycobacterium tuberculosis H37Ra at 3 ug/ml measured after 12 days by XTT assay; conditions: 288 h

Row | SMILES | IC50 [1] | MIC [1] | IC50 [2] | MIC [2] | IC50 [3] | MIC [3] | IC50 [4] | MIC [4] | IC50 [6] | MIC [6] | inhibition at 30 µg/mL [7] | inhibition at 10 µg/mL [8] | inhibition at 3 µg/mL [9] | inhibition at 30 µg/mL [10] | inhibition at 10 µg/mL [11] | inhibition at 3 µg/mL [12] | inhibition at 30 µg/mL [13] | inhibition at 10 µg/mL [14] | inhibition at 3 µg/mL [15] | inhibition at 30 µg/mL [16] | other results
1 | CC(=O)OCC(=O)NC[C@H]1CN(c2ccc(N3CC4(COC4)C3)c(F)c2)C(=O)O1 | > 100 µg/mL | > 100 µg/mL | 0.75 µg/mL (≈ 1.84 µM) | 8.4 µg/mL (≈ 20.6 µM) | > 100 µg/mL | > 100 µg/mL | > 100 µg/mL | > 100 µg/mL | 6.69 µg/mL (≈ 16.4 µM) | 10.6 µg/mL (≈ 26.1 µM) | 89.1% | 63.9% | 49.4% | 58.3% | 42.8% | 22.8% | 98.2% | 93.9% | 82.5% | 99.3% | IC50 [5]: 3.24 µg/mL (≈ 7.95 µM); MIC [5]: 7.8 µg/mL (≈ 19.1 µM); inhibition at 10 µg/mL [17]: 73.6%; inhibition at 3 µg/mL [18]: 43.6%; inhibition at 30 µg/mL [19]: 88.9%; inhibition at 10 µg/mL [20]: 4.03%; inhibition at 3 µg/mL [21]: -16.6%
2 | O=C1O[C@@H](CNC(=S)Nc2ccc(Cl)cc2)CN1c1ccc(N2CC3(COC3)C2)c(F)c1 | > 100 µg/mL | > 100 µg/mL | > 100 µg/mL | > 100 µg/mL | > 100 µg/mL | > 100 µg/mL | > 100 µg/mL | > 100 µg/mL | > 100 µg/mL | > 100 µg/mL | 69.9% | 42.5% | 47.7% | 71.2% | 49.4% | 34% | 47.5% | 37.9% | 18.8% | 62.6% | inhibition at 10 µg/mL [17]: 45.6%; inhibition at 3 µg/mL [18]: 24.1%; inhibition at 30 µg/mL [19]: -0.48%; inhibition at 10 µg/mL [20]: 15.7%; inhibition at 3 µg/mL [21]: 14.8%
3 | NC[C@H]1CN(c2ccc(N3CC4(COC4)C3)c(F)c2)C(=O)O1 | > 100 µg/mL | > 100 µg/mL | 0.84 to 0.843 µg/mL (≈ 2.73 to 2.74 µM) | 3.38 µg/mL (≈ 11 µM) | 0.57 µg/mL (≈ 1.85 µM) | 4.05 µg/mL (≈ 13.2 µM) | > 100 µg/mL | > 100 µg/mL | 3.46 µg/mL (≈ 11.3 µM) | 11.3 µg/mL (≈ 36.9 µM) | 99.2% | 96.8% | 88% | 56.9% | 53.7% | 49.2% | 98.9% | 94.3% | 86.5% | 48.8% | IC50 [5]: 2.8 µg/mL (≈ 9.11 µM); MIC [5]: 18.3 µg/mL (≈ 59.4 µM); inhibition at 10 µg/mL [17]: 43.3%; inhibition at 3 µg/mL [18]: 36.4%; inhibition at 30 µg/mL [19]: 90.9%; inhibition at 10 µg/mL [20]: 75.2%; inhibition at 3 µg/mL [21]: 15.2%
4 | O=C(NC[C@H]1CN(c2ccc(N3CC4(COC4)C3)c(F)c2)C(=O)O1)c1ccno1 | 0.51 µg/mL (≈ 1.27 µM) | 2.57 µg/mL (≈ 6.39 µM) | 0.88 µg/mL (≈ 2.19 µM) | 2.05 µg/mL (≈ 5.09 µM) | 0.71 to 0.72 µg/mL (≈ 1.76 to 1.79 µM) | 4.56 to 4.6 µg/mL (≈ 11.3 to 11.4 µM) | 0.49 µg/mL (≈ 1.22 µM) | 2.35 µg/mL (≈ 5.84 µM) | 9.58 µg/mL (≈ 23.8 µM) | 21.2 µg/mL (≈ 52.8 µM) | 99.9% | 93.3% | 88.3% | 98.9% | 94.9% | 90.8% | 98.5% | 98.2% | 95.1% | 100% | IC50 [5]: 6.4 µg/mL (≈ 15.9 µM); MIC [5]: 10.9 µg/mL (≈ 27.1 µM); inhibition at 10 µg/mL [17]: 97.3%; inhibition at 3 µg/mL [18]: 90.5%; inhibition at 30 µg/mL [19]: 95.4%; inhibition at 10 µg/mL [20]: 18.2%; inhibition at 3 µg/mL [21]: 4.35%
5 | O=C1OC2(CCNC2)CN1c1ccc(N2CCOCC2)c(F)c1 (stereo unspecified) | > 100 µg/mL | > 100 µg/mL | > 100 µg/mL | > 100 µg/mL | 4.44 µg/mL (≈ 13.8 µM) | 0.554 µg/mL (≈ 1.72 µM) | > 100 µg/mL | > 100 µg/mL | > 100 µg/mL | > 100 µg/mL | 99.8% | 96.2% | 86.4% | 36.2% | 32.2% | 22.6% | 50.2% | 46.8% | 36.2% | 32.2% | inhibition at 10 µg/mL [17]: 21.5%; inhibition at 3 µg/mL [18]: 8.05%; inhibition at 30 µg/mL [19]: 49.3%; inhibition at 10 µg/mL [20]: 17%; inhibition at 3 µg/mL [21]: 13.6%
